Results published in patent US20140066385A1, “METHOD FOR TREATING CANCER BY COMBINED USE OF DRUGS” (Astellas Pharma Inc., priority 2011, published 2014).

System: human hormone-resistant prostatic cancer (PC-3)
Experiment: Example 10: FK330 with docetaxel in PC-3 tumor-bearing mice
Type: in vivo, nude mice
Conditions: FK330 100 mg/kg bid p.o. + docetaxel 10 mg/kg/day i.v. (2 days each cycle)
Experimental: The dose of FK330 is expressed in terms of the weight of a simple substance (non-hydrate). Docetaxel (a docetaxel hydrate injectable preparation (Taxotere (trademark), for intravenous infusion)) was purchased from Sanofi-Aventis SA, and was used as docetaxel.
FK330 was suspended (20 mg/mL) in a 0.5% aqueous methyl cellulose solution (0.5% MC), and was orally administered. Docetaxel was prepared to a concentration of 20 mg/mL with 95% ethanol, and then diluted to 1 mg/mL with physiological saline for injection (Otsuka Pharmaceutical Group) immediately before administration and intravenously administered through the tail vein.
Human hormone-resistant prostatic cancer-derived PC-3 (CRL-1435) was obtained from American Type Culture Collection (VA, USA). […]
The body weight and the tumor diameter, determined by using a digital caliper, were measured twice a week. The tumor volume was calculated from the calculation formula for ellipsoid volume of (major axis×[minor axis]^2×0.5).
The results are expressed as the mean value (Mean)±standard error (SEM). […] Using the actual measured values of the tumor volume at each measurement time point, an unpaired statistical test (Student's t-test) of the difference between two groups was carried out between a single administration group and a combined use group. […]

`O=C(/C=C/c1ccc(Cl)cc1)N[C@@H](Cc1ccccn1)C(=O)NCC(=O)N1CCC(Oc2cc(C(F)(F)F)ncn2)CC1` [FK330, N^2-[(2E)-3-(4-chlorophenyl)-2-propenoyl]-N-[2-oxo-2-(4-{[6-(trifluoromethyl)pyrimidin-4-yl]oxy}piperidin-1-yl)ethyl]-3-pyridin-2-yl-L-alaninamide] was tested, and the “tumor volume reduction ratio compared with the docetaxel-only group” value (Day 27, P<0.062) was 49.3% and the “tumor volume reduction ratio compared with the docetaxel-only group” value (Day 51, P<0.05) was 42.0%.
